This assay has as its system T1, β-glucosidase.
T1 construct: gene EC 3.2.1.21; native extracellular enzyme, partially purified from culture (ammonium sulfate, dialysis, Sephadex gel filtration); approx. 50 kDa by SDS-PAGE
The experiment in a line: p-nitrophenol release, absorbance at […] nm; plot of activity against substrate concentration. To be noted: partially purified enzyme; substrate of the standard assay (pNPG); pH and temperature of the kinetic run not given. The class given is biochemical, Proteus mirabilis.

1 molecule from PMC5047857, “Screening, production, optimization and characterization of β-glucosidase using microbes from shellfish waste” (3 Biotech, 2016) can be followed below.

In general, Km refers to the concentration of substrate that gives half-maximal velocity.

Structures are written as SMILES.

For the molecule `O=[N+]([O-])c1ccc(O[C@@H]2O[C@H](CO)[C@@H](O)[C@H](O)[C@H]2O)cc1` [pNPG, p-Nitrophenyl-β-D-glucopyranoside], the Michaelis-Menten constant (Km) was determined as 82 µM.
